Measurements published in patent publication US10927075B2, “Compositions and methods relating to the treatment of cancer, autoimmune disease, and neurodegenerative disease” (THE JACKSON LABORATORY, priority 2014, dated 2021).

Key:
[1] = tested on: U2OS cells; experiment: DR-GFP reporter assay (HR repair of endonuclease generated DSB); format: cell-based, human; conditions: 100 nM or 1 μM
[2] = tested on: CH12-F3 cells; experiment: Radiosensitivity (viability after ionizing irradiation); format: cell-based, mouse; conditions: 50 nM, 100 nM, or 150 nM; 0 or 2.5Gy
Description: FIG. 13A depicts a viability analysis of C-1523-treated CH12-F3 cells 24 h after 0 or 2.5 Gy IR. Data are normalized to the fraction of cells for each IR dose that received DMSO vehicle only; error bars represent the SEM for three independent experiments. FIG. 13B depicts detection of RAD51 by immunofluorescence in primary mouse B cells 24 h after 0 or 2.5 Gy IR and treatment with C-1523 (100 nM) or vehicle. RAD51 staining is in red, nuclear DNA (DAPI-stained) is in blue. Scale bar: 10 μM. FIG. 13C depicts the quantification of cells with nuclear RAD51 (RAD51+) from FIG. 13B. Error bars represent the SEM for three independent experiments. FIG. 13D depicts the quantitation of RAD51 expression in nuclear and cytoplasmic fractions as determined by Western Blot. Values represent the average of three independent experiments and error bars are the SEM. FIG. 13E depicts the immunofluorescent detection of NF-κB localization in primary murine B cells. […] FIG. 13F depicts the quantitation of nuclear NF-κB staining from FIG. 13E. […]
C-1523 disrupts RAD51 nucleocytoplasmic distribution and damage induced relocalization. To assess the DNA repair inhibitory activity of C-1523, radiosensitivity was measured in the mouse leukemia cell line, CH12-F3, with or without C-1523. […] Cells were allowed to recover in culture in the presence of C-1523 (or vehicle control) and viable cells were quantified. […]

[3] = tested on: Primary mouse B cells (WT); experiment: Micronuclei assay; format: cell-based; conditions: 100 nM, WT cells, 3 days
[4] = tested on: primary B-cells (AID+); experiment: Dose response in primary B-cells (AID+); format: cell-based; conditions: FIG. 10
Description: Dose responses for C-1523 (blue) and C-1523-1a (red) in primary B-cells (AID+) was determined (FIG. 10).

[5] = tested on: AID−/− or p53−/− primary mouse B cells; experiment: Micronuclei assay; format: cell-based; conditions: 100 nM, 3 days
[6] = tested on: MEC-1 cells; experiment: Micronuclei assay; format: cell-based, human; conditions: 100 nM for 3 days
[7] = tested on: CCRF-SB cells; experiment: Viability of human B cell tumor cell line (Trypan Blue); format: cell-based
Description: (§1) FIG. 15A depicts an analysis of primary WT (AID+/+, closed markers) and AID−/− (open markers) murine B cell proliferation under activating conditions (αCD40 and IL-4 on days 0 and 2) and treated with the indicated doses of C-1523 for 4 days. Measurement of cell proliferation was determined by Trypan Blue staining and counting of viable, non-staining, cells via hemocytometer. Data are represented as the mean cell count for each condition. FIG. 15B depicts data from experiments in which primary B cells from A were stained with PI on day 4 and analyzed via flow cytometry for the percentage of cells that were non-viable, PI-positive (PI+). FIG. 15C depicts RT-PCR analysis of AID expression in cultured human cell lines. Water (H2O) and RNA from HEK293T cells were employed as negative controls for template and AID expression, respectively, and human activated B lymphocyte RNA (Stim B) was used as a positive control. GAPDH expression was included as a loading control. FIG. 15D depicts viability analysis of CCRF-SB, MEC-1, and MEC-2 cells after 6 days in culture with the indicated concentrations of C-1523, 150 μM DIDS, or DMSO vehicle. Viability was determined by Trypan Blue staining and counting via hemocytometer. FIG. 15E depicts representative immunofluorescence images of phosphorylated γH2AX (green) and nuclei (DAPI, blue) in primary murine splenic B cells from AID−/− (left) or AID+/+ (WT, right) mice. Cells were activated with αCD40 and IL-4 and treated with 100 nM C-1523 for 3 d. Scale bars, 10 μM. FIG. 15F depicts quantitation of foci observed in AID−/− and WT cells represented in FIG. 15E. Data were grouped into categories of cells with low (1-2 foci per nucleus), moderate (3-10 foci per nucleus), or high (>10 foci per nucleus) amounts of DNA damage. Error bars represent the SEM for three independent experiments.
(§2) FIG. 23 depicts graphs of viability analysis for human cancer cell lines treated with C-1523. The acute lymphoblastic leukemia (ALL) line CCRF-SB and the chronic lymphocytic leukemia lines MEC1 and MEC2 were treated with vehicle (DMSO) or 100 nM C-1523, and viability was measured by Tyrpan blue exclusion. All three lines express AID and are sensitive to C-1523 treatment.
(§3) The effect of C-1523 on the viability of AID-expressing human B cell tumor cell lines was further tested ([…]). CCRF-SB is an acute lymphoblastic leukemia cell line derived from a buffy coat preparation (Foley et al., 1968). MEC-1 and MEC-2 are cell lines derived from a patient with chronic lymphocytic leukemia at two different timepoints (before and after fludarabine and rituximab therapy) (Stacchini et al., 1999). C-1523 was tested in these cell lines over a dose range from 1 to 1000 nM, in log increments, and compared to 150 μM DIDS. […] Biphasic or hormetic responses for small molecules can reflect a number of biochemical/biological mechanisms (Calabrese, 2013).
(§4) Cell lines and cell culture. […] Immunofluorescence.

[8] = tested on: MEC-2 cells; experiment: as above; format: cell-based
Description: as §1, §2, §3, §4

[9] = tested on: MEC-1 cells; experiment: as above; format: cell-based
Description: as §1, §2, §3, §4

For `CC(=O)Nc1ccc(/C=C/c2ccc(NC(=S)NC(C)C)cc2S(=O)(=O)O)c(S(=O)(=O)O)c1` [C-1523, (E)-5-acetamido-2-(4-(3-isopropylthioureido)-2-sulfonatostyryl)benzenesulfonate], the “change in GFP-positive cells” value [1] was “no significant change”, the “sensitivity to ionizing irradiation” value [2] was “sensitivity to ionizing irradiation at every concentration tested” and the “acute side effects relative to DIDS” value (in vivo) was “no increased acute side effects”. For the same molecule, the acute toxicity (in vivo) was “almost no acute toxicity”, the “tolerance to prolonged drug exposure” value (single and multiple dose) was “excellent tolerance” and the “increase in micronuclei compared to DMSO” value [3] was 9 fold. The “concentration above which dose response is inverted” value [4] was “above 100 nM”, the fraction of micronuclei [5] was “no increase in the fraction of micronuclei” and the “micronuclei in treated cells versus vehicle” value [6] was “approximately 3.5 fold”. For the same molecule, the “sensitivity (viability)” value ([7]; 100 nM) was “sensitive”, the “viability reduction at highest dose” value ([7]; 1000 nM) was “less than that observed after treatment with 100 nM” and the “concentration of greatest viability reduction” value ([7]; 1 to 1000 nM) was 100 nM. The “viability response over dose range” value ([7]; 1 to 1000 nM, 6 days) was “dose-dependent viability response”, the “sensitivity (viability)” value ([8]; 100 nM) was “sensitive” and the “viability response over dose range” value ([8]; 1 to 1000 nM, 6 days) was “sensitive at all doses tested”. For the same molecule, the “sensitivity (viability)” value ([9]; 100 nM) was “sensitive”, the “viability reduction at highest dose” value ([9]; 1000 nM) was “less than that observed after treatment with 100 nM” and the “concentration of greatest viability reduction” value ([9]; 1 to 1000 nM) was 100 nM. The “viability response over dose range” value ([9]; 1 to 1000 nM, 6 days) was “dose-dependent viability response”.
